Converted amounts (≈) assume the structure as drawn.
What was measured:
[1] = tested on: IFN-α-accelerated NZB/W mouse model of lupus; details: cited from earlier work
[2] = phase I study in healthy participants; cited from earlier work
[3] = tested on: ex vivo-stimulated IL-6 secretion (TLR7/8); format: in vivo, human
[4] = Population PK model of oral enpatoran, phase I healthy participant study; format: in vivo, human; details: interindividual variability, PopPK model
[5] = cited from earlier work
[6] = tested on: aldehyde oxidase enzyme; details: shown in vitro; cited from earlier work
[7] = tested on: ex vivo-stimulated IFN-α secretion (TLR7/8); format: in vivo, human
[8] = cited from earlier work; remark: listed apart in the source
[9] = tested on: IL-6 secretion (TLR7/8); details: mice, mouse models of lupus; cited from earlier work
[10] = tested on: Caco-2; details: cited from earlier work
[11] = tested on: BXSB-Yaa mouse model of lupus; details: cited from earlier work

N#Cc1ccc(N2C[C@H](N)C[C@H](C(F)(F)F)C2)c2cccnc12 [enpatoran, Enpatoran]
doses suppressing disease development [1]: ≥ 1 mg/kg | tolerability [2]: well‐tolerated | IC90 ([3]; Homo sapiens): 0.0155 µg/mL (≈ 0.0484 µM) | inhibition of cytokine release with increasing enpatoran concentrations ([3]; IL-6, complete inhibition): 100% | Hill factor ([3]; ex vivo-stimulated IL-6): > 1.5 | IC60 ([3]; ex vivo-stimulated IL-6, derived from IC50 and Hill factor): 5.59 ng/mL (≈ 0.0175 µM) | IIV CL/F [4]: 27.5 %CV | logP [5]: 2 | metabolic route [6]: metabolism via the aldehyde oxidase enzyme | IC90 ([7]; Homo sapiens): 0.0221 µg/mL (≈ 0.069 µM) | inhibition of cytokine release with increasing enpatoran concentrations ([7]; IFN-α, complete inhibition): 100% | Hill factor ([7]; ex vivo-stimulated IFN-α): > 1.5 | IC60 ([7]; ex vivo-stimulated IFN-α, derived from IC50 and Hill factor): 8.43 ng/mL (≈ 0.0263 µM) | F (fraction of the oral dose systemically available) [8]: > 85% | lowest (minimally) efficacious dose [9]: 1 mg/kg | Caco-2 permeability [10]: 2.6e-05 cm/s | doses suppressing disease development [11]: ≥ 1 mg/kg
